Results as given in patent US11111267B2 (priority 2020, dated 2021).
Entries after “also recorded” stand apart in the source; their conditions may differ. Read-outs that look alike come from different tables or passages of the source.

How the values were obtained:
[1] = Pharmacokinetic study of jervine in mice; assay type: in vivo; conditions: CD-1 mice, PO 10 mg/Kg
Experimental: Orally dosed: A total of 3 male experimental CD-1 mice, approximately 8 weeks of age at receipt was administered jervine via oral gavage at 10 mg/kg. Blood samples (300 μL) were collected via cardiac puncture predose and at 2 minute, 5 minute, 15 minute, 0.5 hour, 1 hour, 2 hour, 4 hour, 8 hour, 24 hours postdose. Plasma was made form the blood samples in order to measure the concentration of jervine.

[2] = system: BXPC-3 human pancreatic carcinoma xenograft; experiment: BXPC-3 xenograft tumor model, subcutaneous; assay type: in vivo, BALB/c nude mice
Experimental: (§1) • 8.1 Tumor size was measured twice weekly in two dimensions using a caliper, and the volume was expressed in mm^3 using the formula: V=0.5 a×b^2 where a and b are the long and short diameters of the tumor, respectively. • 8.2 T/C, percent value, T and C were the mean volume of the treated and control groups, respectively, on a given day. • 8.3 T−C, calculated with T as the time (in days) required for the mean tumor size of the treatment group to reach a predetermined size, and C was the time (in days) for the mean tumor size of the control group to reach the same size. • 8.4 (1−((Td−T0)/(Cd−C0)))×100% value (in percent) was an indication of antitumor effectiveness, Td and Cd were the mean tumor volumes of the treated and vehicle control animals on a given day and T0 and C0 were the mean tumor volumes of the treated and vehicle control animals at the start of the experiment. • 8.5 Tumor mass weight was measured at the end of study. 9. Statistical Analysis
A one-way analysis of variance was performed followed by multiple comparison procedures. All data was analyzed using SPSS 18.0. *p<0.05 or **P<0.01 are generally considered statistically significant when compared with vehicle group.
(§2) BXPC-3 tumor cells cultured in RMPI1640 medium supplemented with 10% heat inactivated fetal bovine serum, all cells used EDTA containing trypsin, passaged twice a week, incubated at 37° C. in an atmosphere of 5% CO2 in air and cultured.
BALB/c nude mice, female, 6-8 weeks old, 18-22 g in body weight, were purchased from Shanghai Laboratory Animal Center (SLAC, Shanghai, China).
Each mouse was inoculated subcutaneously at the right flank region with BXPC-3 tumor cells (5×10^7) in 0.1 ml of phosphate-buffered saline with matrigel via a 1 ml syringe for tumor development. The treatments were started when the mean tumor size reaches approximately 200 (150-250) mm^3 at 9 days after inoculation.
Randomized grouping, observations, aseptic, data processing, measurement and statistical analysis are as described in Example 3.

A431 xenograft = assay type: in vivo, BALB/c nude mice
Experimental: as §2, with “NCI-H2122 cells were cultured in RMPI1640 medium, A431” for “BXPC-3”, “DMEM medium, all the” for “RMPI1640”, “medium were” for “medium”
(§3) 110 BALB/c nude mice, female, 6-8 weeks old, 18-22 g in body weight, were purchased from Shanghai Laboratory Animal Center (SLAC, Shanghai, China). The mice were kept in individually ventilated cage (IVC) systems at constant temperature and humidity, with 20.5-24.5° C. for temperature, 40-75% for humidity. With 4 animals in each cage, the size ogf the cage is 325 mm×210 mm×180 mm. The bedding material is corn cob, which is changed twice per week. Animals had free access to irradiation sterilized dry granule food and water during the entire study period. The food and water were changed twice per week. The identification labels for each cage contain the following information: number of animals, sex, strain, and date received treatment, study number, group number, and the starting date of the treatment. Animals were marked by ear coding. The experiments started one week after receiving the animals.
(§4) Each mouse were inoculated subcutaneously at the right flank region with NCI-H2122 tumor cells (5×10^7/ml), NCI-H1703 tumor cells (1×10^8/ml) and A431 tumor cells (5×10^7/ml), respectively in a mixture of phosphate-buffered saline and matrigel for tumor development via a 1 ml syringe. The treatments were started when the mean tumor size reached about 200 (150-250) mm^3.
(§5) To avoid errors between groups, the animals were first grouped by the tumor volumes according to the tumor volume measurements, and then randomly re-assigned to different groups.
(§6) During the study, the care and use of animals were conducted in accordance with the regulations of the Association for Assessment and Accreditation of Laboratory Animal Care (AAALAC). After tumor cell inoculation, the animals were checked daily for morbidity and mortality. At the time of routine monitoring, the animals were checked for any effects of tumor growth and treatments on normal behavior such as mobility, visual estimation of food and water consumption, body weight gain/loss, eye/hair matting and any other abnormal effect.
(§7) After tumor volume reached 3000 mm^3 or average tumor volume reached 2000 mm^3, before experimental animals emaciated or coma, anesthesia and euthanasia will be performed. During the experiment, if the weight loss of experimental animal reaches 20%, administration will be discontinued and experimental animals will be observed until the weight returned to 10% range before restart of the administration. In this experiment, when the mean tumor volume reached 2000 mm^3 or at the end of 59 days after the administration, experimental animals will be anesthesiaed to collect tumor mass which will be weighed and photographed.
as §1
(§8) A one-way analysis of variance was performed followed by multiple comparison procedures. […]

[3] = system: NCI-H2122 lung cancer xenograft; assay type: in vivo, BALB/c nude mice
Experimental: as §2, with “NCI-H2122 cells were cultured in RMPI1640 medium, A431” for “BXPC-3”, “DMEM medium, all the” for “RMPI1640”, “medium were” for “medium”
as §3, §4, §5, §6, §7, §1, §8

MTD study of jervine = assay type: in vivo, BALB/c nude mice; conditions: 14 days
Experimental: 9 BALB/c nude mice were divided equally into 3 groups. The mice were orally dosed at 50 mg/kg, 80 mg/kg and 150 mg/kg by groups. […] It was initially determined that the MTD is higher than 80 mg/kg for BALB/c nude mice.

[4] = system: Hedgehog signaling pathway; experiment: Gli luciferase reporter assay in Gli Reporter-NIH3T3 cells (mShh stimulated); assay type: cell-based; conditions: mShh 1 μg/ml, 27 hours, read-out: IC50 for inhibition of the Hedgehog signaling pathway
Experimental: Hedgehog signaling pathway Gli Reporter-NIH3T3 cells were cultured in DMEM medium with 10% Calf serum, 1% Penn-strep, 500 μg/ml of Geneticin.
To perform the Gli luciferase reporter assay, Gli Reporter—NIH3T3 cells were seeded at 25,000 cells per well into white clear-bottom 96-well microplate in 100 μl of growth medium. Cells were incubated at 37° C. and 5% CO2 for overnight. Next day remove the medium from wells and add 45 μl of diluted inhibitor in assay medium (Opti-MEM Reduced Serum Medium+0.5% calf serum+1% non-essential amino acids+1 mM Na-pyruvate+10 mM HEPES+1% Pen/Strep) per well. Incubate cells at 37° C. in a CO2 incubator for 2 hours. Then add 5 μl of diluted mShh in assay medium to wells (final [mShh]=1 μg/ml). Add […] of assay medium to cell-free control wells. Cells were treated for 27 hours. […] Luminescence was measured using a luminometer (BioTek Synergy™ 2 microplate reader)
Reporter assays in triplicate were performed at each concentration. The luminescence intensity data were analyzed using the computer software, Graphpad Prism. In the absence of the compound, the luminescence intensity (Lt) in each data set was defined as 100%. In the absence of cells, the luminescence intensity (Lb) in each data set was defined as 0%. […]

CC1=C2C(=O)[C@H]3[C@@H](CC=C4C[C@@H](O)CC[C@@]43C)[C@@H]2CC[C@]12O[C@@H]1C[C@H](C)CN[C@H]1[C@H]2C [jervine]
F (bioavailability) [1]: 41.2% | T/C value ([2]; BXPC-3, 20 mg/kg iv QD × 21 days): 25.8% | T/C value ([2]; BXPC-3, 40 mg/kg iv QD × 21 days): 59.1% | T/C value ([2]; BXPC-3, 80 mg/kg iv QD × 21 days): 54.2% | tumor growth inhibition (in words) ([2]; BXPC-3 xenograft): significantly inhibit the growth of these three tumors; also recorded: effectively inhibit the tumor growth | side effects / weight loss of the mice ([2]; BXPC-3 xenograft, during administration): no obvious side effects such as weight lose was observed; also recorded: no significant of weight lose | T/C value (A431 xenograft; A431, 40 mg/kg p.o. QD × 21 days): 0.52 | T/C value (A431 xenograft; A431, 60 mg/kg p.o. QD × 21 days): 0.80 | T/C value (A431 xenograft; A431, 80 mg/kg p.o. QD × 21 days): 0.82 | T/C value ([3]; NCI-H2122, 40 mg/kg p.o. QD × 21 days): 0.79 | T/C value ([3]; NCI-H2122, 60 mg/kg p.o. QD × 21 days): 0.701 | T/C value ([3]; NCI-H2122, 80 mg/kg p.o. QD × 21 days): 0.594 | mortality (MTD study of jervine; 50 mg/kg oral): no animal dead | general condition of the mice (MTD study of jervine; 80 mg/kg oral gavage): all mice were in good condition | weight loss (MTD study of jervine; 80 mg/kg oral gavage): no significant weight loss | mortality (MTD study of jervine; 80 mg/kg oral): no animal die | mortality (MTD study of jervine; 80 mg/kg oral, listed as Jervine): no animal dead | mortality (MTD study of jervine; 150 mg/kg oral): Two mice in the 150 mg/kg treatment group were dead | IC50 [4]: 0.05 µM
